Laboratory results published in the NIST ThermoML archive (doi:10.1016/j.fluid.2005.07.009).
Numbers after ± are expanded uncertainties.

Tests used:
[1] = molar heat capacity at constant pressure; conditions: 101.33 kPa, Small sample (50 mg) DSC
[2] = Crystal; DTA
[3] = Molar enthalpy of transition or fusion; conditions: Crystal; DSC

CCCCCCCCCCO [decan-1-ol]
[1]
Conditions	molar heat capacity at constant pressure [J/K/mol]
215.12 K, Crystal	224.54 ± 4.5
216.09 K, Crystal	227.81 ± 4.6
217.28 K, Crystal	228.07 ± 4.6
218.46 K, Crystal	228.68 ± 4.6
219.05 K, Crystal	228.9 ± 4.6
219.59 K, Crystal	229.05 ± 4.6
222.22 K, Crystal	229.19 ± 4.6
222.81 K, Crystal	230.27 ± 4.6
223.03 K, Crystal	230.39 ± 4.6
226.41 K, Crystal	231.18 ± 4.6
227.05 K, Crystal	232.61 ± 4.7
229.62 K, Crystal	232.81 ± 4.7
230.15 K, Crystal	233.54 ± 4.7
231.71 K, Crystal	234.37 ± 4.7
232.3 K, Crystal	234.76 ± 4.7
233.74 K, Crystal	235.5 ± 4.7
234.54 K, Crystal	235.92 ± 4.7
235.82 K, Crystal	237.25 ± 4.8
236.3 K, Crystal	237.29 ± 4.8
237.11 K, Crystal	238.88 ± 4.8
238.28 K, Crystal	239.81 ± 4.8
239.94 K, Crystal	240.28 ± 4.8
240.47 K, Crystal	240.35 ± 4.8
241.16 K, Crystal	241 ± 4.8
242.71 K, Crystal	241.58 ± 4.8
244.15 K, Crystal	244.94 ± 4.9
246.13 K, Crystal	245.49 ± 4.9
248.85 K, Crystal	245.75 ± 4.9
249.22 K, Crystal	246.47 ± 4.9
250.88 K, Crystal	247.17 ± 4.9
251.14 K, Crystal	247.6 ± 5
252.58 K, Crystal	250.51 ± 5
253.49 K, Crystal	252.9 ± 5.1
284.18 K, Liquid	357.16 ± 7.1
285.11 K, Liquid	357.65 ± 7.2
286.23 K, Liquid	359.66 ± 7.2
287.17 K, Liquid	360.07 ± 7.2
288.21 K, Liquid	361.72 ± 7.2
289.63 K, Liquid	363.32 ± 7.3
290.29 K, Liquid	363.87 ± 7.3
291.08 K, Liquid	364.63 ± 7.3
292.13 K, Liquid	366.29 ± 7.3
293.23 K, Liquid	366.99 ± 7.3
294.29 K, Liquid	368.16 ± 7.4
295.69 K, Liquid	369.19 ± 7.4
296.43 K, Liquid	370.09 ± 7.4
297.49 K, Liquid	370.33 ± 7.4
298.55 K, Liquid	373 ± 7.5
299.51 K, Liquid	374.14 ± 7.5
300.21 K, Liquid	375.31 ± 7.5
301.18 K, Liquid	375.74 ± 7.5
302.45 K, Liquid	377.89 ± 7.6
304.22 K, Liquid	380.22 ± 7.6
305.31 K, Liquid	381.17 ± 7.6
306.42 K, Liquid	382.5 ± 7.7
307.18 K, Liquid	383.77 ± 7.7
308.14 K, Liquid	384.86 ± 7.7

Conditions	Molar enthalpy of transition or fusion [kcal/mol]	Triple point temperature [K]
[2]	–	278.67 ± 0.5
[3]	7.5 ± 0.213	–
